Tests used:
[1] = Inhibition of the thromboxane A2 receptor assayed by binding to guinea pig platelets using [3H]U-46619 as radioligand
[2] = Binding affinity at TXA2 receptor by measuring its ability to displace [3H]U-46619 from guinea pig platelets
[3] = molecular target: Thromboxane-A synthase (Bos taurus); test: Inhibitory effect against thromboxane A2 synthase binding to bovine platelets
[4] = Compound was tested for its inhibitory activity against TXA2 synthase obtained from bovine platelet microsomes
[5] = Compound was tested for its binding affinity at Thromboxane A2 receptor by measuring its ability to displace [3H]U-46619 from guinea pig platelets

Structure (SMILES)	Ki [1] [nM]	Ki [2] [nM]	IC50 [3] [nM]	IC50 [4] [nM]	Ki [5] [nM]
O=C(O)c1cccc(C(SCCNS(=O)(=O)c2ccccc2)c2ccccc2)c1 (stereo not given)	77	77	–	–	–
O=C(O)c1ccc2c(c1)OCc1ccccc1C2SCCNS(=O)(=O)c1ccccc1 (stereo not given)	–	–	370	370	–
COc1cc(C(=O)NCCSC2c3ccccc3COc3ccc(C(=O)O)cc32)cc(OC)c1OC (stereo not given)	92	92	–	–	–
O=C(O)c1ccc2c(c1)C(SCCNS(=O)(=O)c1ccccc1)c1ccccc1C=C2 (stereo not given)	25	–	–	–	25
Cc1ccsc1C(=O)NCCSC1c2ccccc2COc2ccc(C(=O)O)cc21 (stereo not given)	10	10	–	–	–
Cc1ccc(S(=O)(=O)NCCSC2c3ccccc3COc3ccc(C(=O)O)cc32)cc1 (stereo not given)	27	–	–	–	27
O=C(O)c1ccc2c(c1)C(SCCNS(=O)(=O)c1ccc3ccccc3c1)c1ccccc1CO2 (stereo not given)	14	14	–	–	–
O=C(O)c1ccc2c(c1)C(SCCNC(=O)c1ccccc1)c1ccccc1CO2 (stereo not given)	44	–	–	–	–
O=C(O)c1ccc2c(c1)C(SCCNS(=O)(=O)c1ccccc1)c1cc(Br)ccc1CO2 (stereo not given)	6.8	–	–	–	6.8
O=C(O)c1ccc2c(c1)C(SCCNS(=O)(=O)c1ccc(C(F)(F)F)cc1)c1ccccc1CO2 (stereo not given)	20	–	–	–	20
COc1ccc(S(=O)(=O)NCCSC2c3ccccc3COc3ccc(C(=O)O)cc32)cc1 (stereo not given)	–	–	–	–	17
O=C(O)c1ccc2c(c1)C(SCCNC(=O)c1ccccc1O)c1ccccc1CO2 (stereo not given)	5.1	–	–	–	5.1
O=C(O)c1ccc2c(c1)C(SCCNS(=O)(=O)c1ccccc1)c1ccccc1CC2 (stereo not given)	30	30	–	–	–
O=C(O)c1ccc2c(c1)C(SCCNS(=O)(=O)c1cccs1)c1ccccc1CO2 (stereo not given)	5.7	–	–	–	5.7
O=C(NCCSC1c2ccccc2COc2ccc(C(=O)O)cc21)OCc1ccccc1 (stereo not given)	7.7	–	–	–	–
O=C(O)c1ccc2c(c1)C(SCCNS(=O)(=O)c1ccccc1[N+](=O)[O-])c1ccccc1CO2 (stereo not given)	15	–	–	–	15
O=C(NCCSC1c2ccccc2COc2ccc(C(=O)O)cc21)Nc1ccccc1 (stereo not given)	–	–	830	830	–
O=C(O)c1ccc2c(c1)C(SCCNC(=S)NCc1ccccc1)c1ccccc1CO2 (stereo not given)	6.1	6.1	–	–	–
O=C(O)c1ccc2c(c1)C(SCCNS(=O)(=O)c1cccc([N+](=O)[O-])c1)c1ccccc1CO2 (stereo not given)	14	14	–	–	–

Source: BindingDB's records for doi:10.1021/jm00096a016 (Kyowa Hakko Kogyo, 1992)
